These results are taken from ChEMBL document CHEMBL1130170, “Orally active trifluoromethyl ketone inhibitors of human leukocyte elastase” (J Med Chem, 1997).

Data set [1] is described as follows: Intravenous integrated area under the concentration vs time curve, for compound in dog plasma. Type of data set: ADME, organism-based, Canis lupus familiaris.
Data set [2] in a line: Time of maximum concentration of compound in rat plasma. It is filed as ADME, organism-based.
The nature of data set [3]: Oral integrated area under the concentration vs time curve, for compound in dog plasma. Type of data set: ADME, organism-based, Canis lupus familiaris.
In a further data set the target is Plasma kallikrein (Homo sapiens, UniProt P03952). The experiment in a line: Binding affinity for human plasma kallikrein; No inhibition at 188 uM (highest concentration tested). Type of data set: cell-free.
Plasma kallikrein, sequence (P03952 20-390 limits assumed): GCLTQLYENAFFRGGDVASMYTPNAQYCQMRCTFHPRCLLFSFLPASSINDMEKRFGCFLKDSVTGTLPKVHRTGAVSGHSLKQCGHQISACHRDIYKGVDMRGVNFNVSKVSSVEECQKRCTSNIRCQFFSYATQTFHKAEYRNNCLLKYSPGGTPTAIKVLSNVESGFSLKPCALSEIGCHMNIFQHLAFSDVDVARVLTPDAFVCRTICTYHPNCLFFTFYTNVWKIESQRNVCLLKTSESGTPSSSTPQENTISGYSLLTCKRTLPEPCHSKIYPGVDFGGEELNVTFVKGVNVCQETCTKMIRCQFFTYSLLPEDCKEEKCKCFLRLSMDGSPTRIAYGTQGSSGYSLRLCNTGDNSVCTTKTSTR
Plasma kallikrein, sequence (P03952 391-638 limits assumed): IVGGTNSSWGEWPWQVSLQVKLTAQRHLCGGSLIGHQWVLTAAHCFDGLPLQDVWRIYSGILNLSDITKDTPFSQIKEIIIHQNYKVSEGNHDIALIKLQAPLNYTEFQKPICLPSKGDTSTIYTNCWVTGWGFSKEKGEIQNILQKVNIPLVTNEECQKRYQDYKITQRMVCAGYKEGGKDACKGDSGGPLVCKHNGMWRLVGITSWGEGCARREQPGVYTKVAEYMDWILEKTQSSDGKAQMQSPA
Data set [4] has as its system Cricetinae gen. sp. The experiment in a line: Effective dose in the Acute Hemarrhagic Assay model after oral administration. Type of data set: functional, Cricetulus griseus.
A short description of data set [5]: Oral integrated area under the concentration vs time curve, for compound in rat plasma. Type of data set: ADME, organism-based.
For data set [6], the target named is T1, Angiotensin-converting enzyme (Oryctolagus cuniculus, UniProt P12822).
T1 sequence (P12822 whole entry): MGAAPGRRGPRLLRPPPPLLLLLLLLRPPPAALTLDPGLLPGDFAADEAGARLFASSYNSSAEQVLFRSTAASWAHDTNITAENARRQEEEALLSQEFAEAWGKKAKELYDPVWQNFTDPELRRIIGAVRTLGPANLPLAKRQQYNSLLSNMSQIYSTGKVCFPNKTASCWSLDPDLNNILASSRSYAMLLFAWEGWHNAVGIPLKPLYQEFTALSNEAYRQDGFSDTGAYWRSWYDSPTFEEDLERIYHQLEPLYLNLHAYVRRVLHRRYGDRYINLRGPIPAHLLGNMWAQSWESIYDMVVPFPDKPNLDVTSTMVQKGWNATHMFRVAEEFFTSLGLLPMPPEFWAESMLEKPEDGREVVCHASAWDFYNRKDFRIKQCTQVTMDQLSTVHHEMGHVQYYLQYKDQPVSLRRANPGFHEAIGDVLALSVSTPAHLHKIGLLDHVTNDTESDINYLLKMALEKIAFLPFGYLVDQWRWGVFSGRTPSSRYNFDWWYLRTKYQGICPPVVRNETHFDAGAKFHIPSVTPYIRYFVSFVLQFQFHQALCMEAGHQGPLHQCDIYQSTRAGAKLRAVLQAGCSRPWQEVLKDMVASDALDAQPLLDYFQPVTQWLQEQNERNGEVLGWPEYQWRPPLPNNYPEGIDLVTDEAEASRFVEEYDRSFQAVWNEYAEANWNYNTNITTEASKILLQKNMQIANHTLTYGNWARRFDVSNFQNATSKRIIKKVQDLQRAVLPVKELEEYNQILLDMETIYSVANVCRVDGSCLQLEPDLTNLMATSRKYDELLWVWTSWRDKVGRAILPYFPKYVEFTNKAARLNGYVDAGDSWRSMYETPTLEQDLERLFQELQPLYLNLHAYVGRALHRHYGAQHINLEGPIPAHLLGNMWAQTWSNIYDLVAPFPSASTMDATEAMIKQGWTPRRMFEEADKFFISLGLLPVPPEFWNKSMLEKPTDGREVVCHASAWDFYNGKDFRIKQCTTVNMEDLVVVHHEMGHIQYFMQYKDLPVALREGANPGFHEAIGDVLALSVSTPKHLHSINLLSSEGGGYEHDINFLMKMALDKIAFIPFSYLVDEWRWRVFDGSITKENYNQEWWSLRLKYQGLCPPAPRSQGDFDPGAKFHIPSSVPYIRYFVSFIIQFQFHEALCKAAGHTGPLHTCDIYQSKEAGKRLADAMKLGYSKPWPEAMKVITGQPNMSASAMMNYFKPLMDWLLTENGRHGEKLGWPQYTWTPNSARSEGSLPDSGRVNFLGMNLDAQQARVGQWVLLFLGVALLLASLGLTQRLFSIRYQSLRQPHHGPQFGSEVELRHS
The experiment in a line: Binding affinity for rabbit lung Angiotensin I converting enzyme; No inhibition at 188 uM (highest concentration tested).

Data set [7] in a line: Maximum concentration of the unchanged compound in hamster plasma, recorded in the period 0-6 hr post dose. It is filed as ADME, organism-based. The settings on record: cricetinae.
The nature of data set [8]: Maximum concentration of the unchanged compound in dog plasma, recorded in the period 0-6 hr post dose. Type of data set: ADME, organism-based, Canis lupus familiaris.
Data set [9] in a line: Oral integrated area under the concentration vs time curve, for compound in hamster plasma. It is filed as ADME, organism-based. The settings on record: cricetinae.
The next data set addresses Prothrombin (Homo sapiens, UniProt P00734). Put plainly: Binding affinity for human plasma thrombin; No inhibition at 188 uM (highest concentration tested). Type of data set: cell-free.
In the next data set the target is T2, Papain (Carica papaya, UniProt P00784).
T2 sequence (P00784 whole entry): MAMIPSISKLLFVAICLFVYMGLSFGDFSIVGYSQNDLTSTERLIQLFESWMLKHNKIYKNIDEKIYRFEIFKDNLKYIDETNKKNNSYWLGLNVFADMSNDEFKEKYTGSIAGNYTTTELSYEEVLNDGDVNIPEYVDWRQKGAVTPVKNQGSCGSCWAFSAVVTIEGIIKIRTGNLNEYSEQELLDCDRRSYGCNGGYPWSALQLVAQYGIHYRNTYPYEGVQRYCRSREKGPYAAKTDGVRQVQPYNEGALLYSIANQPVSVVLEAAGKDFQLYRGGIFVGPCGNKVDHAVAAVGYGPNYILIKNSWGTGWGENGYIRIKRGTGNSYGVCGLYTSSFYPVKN
Put plainly: Binding affinity for papaya papain; No inhibition at 188 uM (highest concentration tested).

The test system of data set [10] is Cricetinae gen. sp. The experiment in a line: Effective dose in the Acute Hemarrhagic Assay model after i.v. administration. Type of data set: functional, Cricetulus griseus. The note with it: iv.
Data set [11] is described as follows: Half-life of compound in plasma of dog. It is filed as ADME, organism-based, Canis lupus familiaris.
The nature of data set [12]: Intravenous integrated area under the concentration vs time curve, for compound in rat plasma. It is filed as ADME, organism-based.
Data set [13] is described as follows: Half-life of compound in plasma of hamster. Type of data set: ADME, organism-based. The note with it: cricetinae.
The next data set addresses Kallikrein-1 (Homo sapiens, UniProt P06870). The experiment in a line: Binding affinity for human urine kallikrein; No inhibition at 188 uM (highest concentration tested).
A short description of data set [14]: Half-life of compound in plasma of rat. It is filed as ADME, organism-based.
Data set [15] can be described thus: Maximum concentration of the unchanged compound in rat plasma, recorded in the period 0-6 hr post dose. It is filed as ADME, organism-based.
The nature of data set [16]: Time of maximum concentration of compound in hamster plasma. Type of data set: ADME, organism-based. The settings on record: cricetinae.
A short description of data set [17]: Bioavailability in hamster. It is filed as ADME, organism-based, Cricetulus griseus. The note with it: chinese hamster, in vivo.
The nature of data set [18]: Time of maximum concentration of compound in dog plasma. Type of data set: ADME, organism-based, Canis lupus familiaris.

Where a SMILES comes first, the peptide text is derived from it. The star is where a group is joined. CF3 = FC(F)(F)*; Moc = COC(=O)*

Kallikrein-1, sequence (P06870 whole entry): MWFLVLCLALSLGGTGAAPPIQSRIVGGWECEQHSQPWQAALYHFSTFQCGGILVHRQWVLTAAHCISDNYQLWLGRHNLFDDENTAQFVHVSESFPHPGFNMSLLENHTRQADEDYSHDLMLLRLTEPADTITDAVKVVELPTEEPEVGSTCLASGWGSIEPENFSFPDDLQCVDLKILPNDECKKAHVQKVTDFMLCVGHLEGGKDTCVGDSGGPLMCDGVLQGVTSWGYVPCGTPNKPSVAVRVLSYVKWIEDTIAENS

By AUC is commonly meant concentration integrated over time. Lower therefore signals low exposure. In general, Tmax refers to the time from dosing to the highest level. Usually ED50 stands for the dose at which the effect has come halfway, by size or by number of responders. The low end stands for greater potency, the high end for weaker potency. What is called Cmax is the maximum level reached in the sampled fluid or tissue. One may read the half-life as how long it takes for the measured level to halve. The low end stands for fast loss, the high end for slow loss. Usually bioavailability stands for the share of a dose that reaches the circulation, judged against a reference dose that is usually intravenous. Read a low bioavailability as little systemic uptake. In the case of `COc1ccc(C(=O)N[C@H](C(=O)N2CCC[C@H]2C(=O)N[C@H](C(=O)C(F)(F)F)C(C)C)C(C)C)cc1` (stereo in doubt; 1k), the AUC in data set [1] amounted to 3180 ng·h/mL; in [3], 1250 ng·h/mL; in [5], 1400 ng·h/mL; in data set [9], 355 ng·h/mL; in [12], 1700 ng·h/mL. Further, the Tmax in [2] stood at 15 min; in data set [16], 30 min; in [18], 30 min. Besides, the Ki result (on Plasma kallikrein; in data set [6]; on Prothrombin; at Papain; on Kallikrein-1) was “No inhibition” throughout. Moreover, the ED50 with Cricetinae gen. sp. [4] was found to be 4.9 mg/kg; in the data set on Cricetinae gen. sp. [10] it was 0.59 mg/kg. For the same compound, the Cmax in [7] is 373 ng/mL; in data set [8], 382 ng/mL; in [15] it was 972 ng/mL. Also, the half-life in [11] is 120 min; in data set [13], 72 min; in data set [14], 49.2 min. Also, in data set [17], the bioavailability stood at 26%.

Take `COC(=O)N[C@H](C(=O)N1CCC[C@H]1C(=O)N[C@H](C(=O)C(F)(F)F)C(C)C)C(C)C` (Moc-Val-Pro-Val-CF3): the AUC in [1] was 9370 ng·h/mL; in data set [3], 6540 ng·h/mL; in [5], 5480 ng·h/mL; in data set [9], 2160 ng·h/mL; in data set [12], 6540 ng·h/mL. Moreover, the Tmax was determined as 30 min in data set [2], 15 min in [16] and 19.8 min in data set [18]. In addition, the Ki result (on Plasma kallikrein; in data set [6]; on Prothrombin; at Papain; at Kallikrein-1) was “No inhibition” throughout. The results for the ED50 in the data set on Cricetinae gen. sp. [4] and in the data set on Cricetinae gen. sp. [10] were 2 mg/kg and 0.51 mg/kg, respectively. Moreover, the Cmax in data set [7] came out at 1460 ng/mL; in data set [8], 5440 ng/mL; in data set [15], 3690 ng/mL. In addition, the half-life in [11] is 48.6 min; in [13] it was 120 min; in data set [14], 78 min. Besides, in data set [17], the bioavailability was 75%.
